Assay results as given in patent US20250163104A1, “MACROCYCLIC IMMUNOMODULATORS” (priority 2021, published 2025).
Where a SMILES comes first, the peptide text is derived from it. Bridges are numbered along the chain shown (N, C = ends). [ ]: non-standard residue; d: D form. The star is where a group is joined. ξ: configuration not given here. Bip = N[C@@H](Cc1ccc(-c2ccccc2)cc1)C(=O)O; hArg = N=C(N)NCCCC[C@H](N)C(=O)O; Cha = N[C@@H](CC1CCCCC1)C(=O)O; Ile(3ξ) = CCC(C)[C@H](N)C(=O)O; NMeN = CN[C@@H](CC(N)=O)C(=O)O; Thr(3ξ) = CC(O)[C@H](N)C(=O)O; Carboxymethyl = O=C(O)C*; NMeA = CN[C@@H](C)C(=O)O; Nle = CCCC[C@H](N)C(=O)O; Orn = NCCC[C@H](N)C(=O)O; Dab = NCC[C@H](N)C(=O)O; Abu = CC[C@H](N)C(=O)O

Target: T1, human PD-1 / PD-L1-Ig binding on Jurkat cell line over-expressing human PD-1 (Jurkat-PD-1) (Homo sapiens, UniProt Q15116)
T1 construct: expressed in transfected cells; host or cells: Jurkat
Experiment: Jurkat-PD-1 Cell Binding High-Content Screening Assay (CBA)
Format: cell-based
Conditions: Jurkat-PD-1 cells, PE-labeled PD-L1-Ig 20 nM final; read-out: Jurkat HPD1_PDL1 IC50
How it was run: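 Binding of fluorescent PD-L1-Ig (phycoerythrin linked via the Ig tag, 20 nM final) to PD-1-overexpressing Jurkat cells was imaged after a 2 h, 37° C compound pretreatment and 1 hour ligand incubation.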

T1 sequence (Q15116 25-288): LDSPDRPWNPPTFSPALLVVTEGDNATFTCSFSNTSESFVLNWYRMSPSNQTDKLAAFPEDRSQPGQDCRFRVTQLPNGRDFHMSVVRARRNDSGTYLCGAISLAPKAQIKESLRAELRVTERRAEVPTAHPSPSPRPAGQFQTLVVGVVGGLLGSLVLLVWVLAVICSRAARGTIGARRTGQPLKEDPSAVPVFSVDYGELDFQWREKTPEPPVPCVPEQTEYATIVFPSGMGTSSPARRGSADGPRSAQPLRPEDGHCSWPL

Compound	IC50
CC(C)C[C@H]1NC(=O)[C@H](CCCN)NC(=O)[C@H](CCC(=O)O)NC(=O)[C@H](Cc2ccc(-c3ccccc3)cc2)NC(=O)[C@H](C(C)C)NC(=O)[C@H](Cc2c[nH]c3ccccc23)NC(=O)[C@H](CC(=O)O)NC(=O)[C@H](Cc2ccc(OCC(=O)O)cc2)NC(=O)[C@H](Cc2cnc[nH]2)NC(=O)CSC[C@@H](C(=O)N[C@@H](CC(N)=O)C(N)=O)NC(=O)[C@H](C(C)O)NC(=O)[C@H](C(C)C)NC(=O)[C@H](CC2CCCCC2)NC(=O)[C@H](CCN)NC1=O (stereo partly drawn) [Compound 2562] ({CH2CO}-HY(Carboxymethyl)DWV[Bip]E[Orn][dL][Dab][Cha]V[Thr(3ξ)]CN-NH2; thioether N-14)	6.5 nM
CC(C)C[C@H]1NC(=O)[C@H](CCCN)NC(=O)[C@H](C(C)C)NC(=O)[C@H](Cc2ccc(-c3ccccc3)cc2)NC(=O)[C@H](C(C)C)NC(=O)[C@H](Cc2c[nH]c3ccccc23)NC(=O)[C@H](CC(=O)O)NC(=O)[C@H](Cc2ccc(OCC(=O)O)cc2)NC(=O)[C@H](Cc2cnc[nH]2)NC(=O)CSC[C@@H](C(=O)N[C@H](C)C(N)=O)NC(=O)[C@H](C(C)O)NC(=O)[C@H](C(C)C)NC(=O)[C@H](CC2CCCCC2)NC(=O)[C@H](CCN)NC1=O (stereo partly drawn) [Compound 2563] ({CH2CO}-HY(Carboxymethyl)DWV[Bip]V[Orn][dL][Dab][Cha]V[Thr(3ξ)]C[dA]-NH2; thioether N-14)	3 nM
CC[C@H](NC(=O)[C@@H]1CSCC(=O)N[C@@H](Cc2cnc[nH]2)C(=O)N[C@@H](Cc2ccc(OCC(=O)O)cc2)C(=O)N[C@@H](CC(=O)O)C(=O)N[C@@H](Cc2c[nH]c3ccccc23)C(=O)N[C@@H](C(C)C)C(=O)N[C@@H](Cc2ccc(-c3ccccc3)cc2)C(=O)N[C@@H](C(C)C)C(=O)N[C@@H](CCCN)C(=O)N[C@H](CC(C)C)C(=O)N[C@@H](CCN)C(=O)N[C@@H](CC2CCCCC2)C(=O)N[C@@H](C(C)C)C(=O)N[C@@H](CO)C(=O)N1)C(N)=O [Compound 2564] ({CH2CO}-HY(Carboxymethyl)DWV[Bip]V[Orn][dL][Dab][Cha]VSC[Abu]-NH2; thioether N-14)	18.8 nM
CC(C)C[C@H]1NC(=O)[C@H](CCCN)NC(=O)[C@H](C(C)C)NC(=O)[C@H](Cc2ccc(-c3ccccc3)cc2)NC(=O)[C@H](C(C)C)NC(=O)[C@H](Cc2c[nH]c3ccccc23)NC(=O)[C@H](CC(=O)O)NC(=O)[C@H](Cc2ccc(OCC(=O)O)cc2)NC(=O)[C@H](C(C)O)NC(=O)CSC[C@@H](C(=O)N[C@H](CC(N)=O)C(N)=O)NC(=O)[C@H](CO)NC(=O)[C@H](C(C)C)NC(=O)[C@H](CC2CCCCC2)NC(=O)[C@H](CCN)NC1=O (stereo partly drawn) [Compound 2565] ({CH2CO}-[Thr(3ξ)]Y(Carboxymethyl)DWV[Bip]V[Orn][dL][Dab][Cha]VSC[dN]-NH2; thioether N-14)	3.3 nM
CC(C)C[C@H]1NC(=O)[C@H](CCCN)NC(=O)CNC(=O)[C@H](Cc2ccc(-c3ccccc3)cc2)NC(=O)[C@H](C(C)C)NC(=O)[C@H](Cc2c[nH]c3ccccc23)NC(=O)[C@H](CC(=O)O)NC(=O)[C@H](Cc2ccc(OCC(=O)O)cc2)NC(=O)[C@H](C(C)O)NC(=O)CSC[C@@H](C(=O)N[C@@H](CC(N)=O)C(N)=O)NC(=O)[C@H](CO)NC(=O)[C@H](C(C)C)NC(=O)[C@H](CC2CCCCC2)NC(=O)[C@H](CCN)NC1=O (stereo partly drawn) [Compound 2566] ({CH2CO}-[Thr(3ξ)]Y(Carboxymethyl)DWV[Bip]G[Orn][dL][Dab][Cha]VSCN-NH2; thioether N-14)	121 nM
CC(C)C[C@H]1NC(=O)[C@H](CCCN)NC(=O)[C@H](C(C)C)NC(=O)[C@H](Cc2ccc(-c3ccccc3)cc2)NC(=O)[C@H](C(C)C)NC(=O)[C@H](Cc2c[nH]c3ccccc23)NC(=O)[C@H](CC(=O)O)NC(=O)[C@H](Cc2ccc(OCC(=O)O)cc2)NC(=O)[C@H](CCCCNC(=N)N)NC(=O)CSC[C@@H](C(=O)N(C)[C@@H](CC(N)=O)C(N)=O)NC(=O)[C@H](CO)NC(=O)[C@H](C(C)C)NC(=O)[C@H](CC2CCCCC2)NC(=O)[C@H](CCN)NC1=O [Compound 2567] ({CH2CO}-[hArg]Y(Carboxymethyl)DWV[Bip]V[Orn][dL][Dab][Cha]VSC[NMeN]-NH2; thioether N-14)	23.9 nM
CC(C)C[C@H]1NC(=O)[C@H](CCCN)NC(=O)[C@H](C(C)C)NC(=O)[C@H](Cc2ccc(-c3ccccc3)cc2)NC(=O)[C@H](C(C)C)NC(=O)[C@H](Cc2c[nH]c3ccccc23)NC(=O)[C@H](CC(=O)O)NC(=O)[C@H](Cc2ccc(OCC(=O)O)cc2)NC(=O)[C@H](C(C)O)NC(=O)CSC[C@@H](C(=O)N(C)[C@@H](CC(N)=O)C(N)=O)NC(=O)[C@H](CO)NC(=O)[C@H](C(C)C)NC(=O)[C@H](CC2CCCCC2)NC(=O)[C@H](CCN)NC1=O (stereo partly drawn) [Compound 2568] ({CH2CO}-[Thr(3ξ)]Y(Carboxymethyl)DWV[Bip]V[Orn][dL][Dab][Cha]VSC[NMeN]-NH2; thioether N-14)	67.1 nM
CC(C)C[C@H]1NC(=O)[C@H](CCCN)NC(=O)[C@H](C(C)C)NC(=O)[C@H](Cc2ccc(-c3ccccc3)cc2)NC(=O)[C@H](C(C)C)NC(=O)[C@H](Cc2c[nH]c3ccccc23)NC(=O)[C@H](CC(=O)O)NC(=O)[C@H](Cc2ccc(OCC(=O)O)cc2)NC(=O)[C@H](CCCCNC(=N)N)NC(=O)CSC[C@@H](C(=O)N(C)[C@@H](C)C(N)=O)NC(=O)[C@H](CO)NC(=O)[C@H](C(C)C)NC(=O)[C@H](CC2CCCCC2)NC(=O)[C@H](CCN)NC1=O [Compound 2569] ({CH2CO}-[hArg]Y(Carboxymethyl)DWV[Bip]V[Orn][dL][Dab][Cha]VSC[NMeA]-NH2; thioether N-14)	18.5 nM
CC(C)C[C@H]1NC(=O)[C@H](CCCN)NC(=O)[C@H](C(C)C)NC(=O)[C@H](Cc2ccc(-c3ccccc3)cc2)NC(=O)[C@H](C(C)C)NC(=O)[C@H](Cc2c[nH]c3ccccc23)NC(=O)[C@H](CC(=O)O)NC(=O)[C@H](Cc2ccc(OCC(=O)O)cc2)NC(=O)[C@H](C(C)O)NC(=O)CSC[C@@H](C(=O)N(C)[C@@H](C)C(N)=O)NC(=O)[C@H](CO)NC(=O)[C@H](C(C)C)NC(=O)[C@H](CC2CCCCC2)NC(=O)[C@H](CCN)NC1=O (stereo partly drawn) [Compound 2570] ({CH2CO}-[Thr(3ξ)]Y(Carboxymethyl)DWV[Bip]V[Orn][dL][Dab][Cha]VSC[NMeA]-NH2; thioether N-14)	15.2 nM
CCCC[C@@H]1NC(=O)[C@H](Cc2c[nH]c3ccccc23)NC(=O)[C@H](CC(=O)O)NC(=O)[C@H](Cc2ccc(OCC(=O)O)cc2)NC(=O)[C@H](C(C)O)NC(=O)CSC[C@@H](C(=O)N[C@@H](CC(N)=O)C(=O)O)NC(=O)[C@H](CO)NC(=O)[C@H](C(C)C)NC(=O)[C@H](CC(C)C)NC(=O)[C@H](CCN)NC(=O)[C@@H](CC(C)C)NC(=O)[C@H](CCCN)NC(=O)[C@H](C(C)CC)NC(=O)[C@H](Cc2ccc(-c3ccccc3)cc2)NC1=O (stereo partly drawn) [Compound 2571] ({CH2CO}-[Thr(3ξ)]Y(Carboxymethyl)DW[Nle][Bip][Ile(3ξ)][Orn][dL][Dab]LVSCN-OH; thioether N-14)	26.1 nM
CCC(C)[C@@H]1NC(=O)[C@H](Cc2ccc(-c3ccccc3)cc2)NC(=O)[C@H](C(C)O)NC(=O)[C@H](Cc2c[nH]c3ccccc23)NC(=O)[C@H](CC(=O)O)NC(=O)[C@H](Cc2ccc(OCC(=O)O)cc2)NC(=O)[C@H](C(C)O)NC(=O)CSC[C@@H](C(=O)N[C@@H](CC(N)=O)C(=O)O)NC(=O)[C@H](CO)NC(=O)[C@H](C(C)C)NC(=O)[C@H](CC(C)C)NC(=O)[C@H](CCN)NC(=O)[C@@H](CC(C)C)NC(=O)[C@H](CCCN)NC1=O (stereo partly drawn) [Compound 2572] ({CH2CO}-[Thr(3ξ)]Y(Carboxymethyl)DW[Thr(3ξ)][Bip][Ile(3ξ)][Orn][dL][Dab]LVSCN-OH; thioether N-14)	77.4 nM
CCC(C)[C@@H]1NC(=O)[C@H](Cc2c[nH]c3ccccc23)NC(=O)[C@H](CC(=O)O)NC(=O)[C@H](Cc2ccc(OCC(=O)O)cc2)NC(=O)[C@H](C(C)O)NC(=O)CSC[C@@H](C(=O)N[C@@H](CC(N)=O)C(=O)O)NC(=O)[C@H](CO)NC(=O)[C@H](C(C)C)NC(=O)[C@H](CC(C)C)NC(=O)[C@H](CCN)NC(=O)[C@@H](CC(C)C)NC(=O)[C@H](CCCN)NC(=O)[C@H](C(C)CC)NC(=O)[C@H](Cc2ccc(-c3ccccc3)cc2)NC1=O (stereo partly drawn) [Compound 2573] ({CH2CO}-[Thr(3ξ)]Y(Carboxymethyl)DW[Ile(3ξ)][Bip][Ile(3ξ)][Orn][dL][Dab]LVSCN-OH; thioether N-14)	162 nM
CCC(C)[C@@H]1NC(=O)[C@H](Cc2ccc(-c3ccccc3)cc2)NC(=O)[C@H](Cc2ccccc2)NC(=O)[C@H](Cc2c[nH]c3ccccc23)NC(=O)[C@H](CC(=O)O)NC(=O)[C@H](Cc2ccc(OCC(=O)O)cc2)NC(=O)[C@H](C(C)O)NC(=O)CSC[C@@H](C(=O)N[C@@H](CC(N)=O)C(=O)O)NC(=O)[C@H](CO)NC(=O)[C@H](C(C)C)NC(=O)[C@H](CC(C)C)NC(=O)[C@H](CCN)NC(=O)[C@@H](CC(C)C)NC(=O)[C@H](CCCN)NC1=O (stereo partly drawn) [Compound 2574] ({CH2CO}-[Thr(3ξ)]Y(Carboxymethyl)DWF[Bip][Ile(3ξ)][Orn][dL][Dab]LVSCN-OH; thioether N-14)	132 nM
CCC(C)[C@@H]1NC(=O)[C@H](Cc2ccc(-c3ccccc3)cc2)NC(=O)[C@H](CC2CCCCC2)NC(=O)[C@H](Cc2c[nH]c3ccccc23)NC(=O)[C@H](CC(=O)O)NC(=O)[C@H](Cc2ccc(OCC(=O)O)cc2)NC(=O)[C@H](C(C)O)NC(=O)CSC[C@@H](C(=O)N[C@@H](CC(N)=O)C(=O)O)NC(=O)[C@H](CO)NC(=O)[C@H](C(C)C)NC(=O)[C@H](CC(C)C)NC(=O)[C@H](CCN)NC(=O)[C@@H](CC(C)C)NC(=O)[C@H](CCCN)NC1=O (stereo partly drawn) [Compound 2575] ({CH2CO}-[Thr(3ξ)]Y(Carboxymethyl)DW[Cha][Bip][Ile(3ξ)][Orn][dL][Dab]LVSCN-OH; thioether N-14)	60.1 nM
